Laboratory results taken from article PMC3722118, “Hellebrin and its aglycone form hellebrigenin display similar in vitro growth inhibitory effects in cancer cells and binding profiles to the alpha subunits of the Na^+/K^+-ATPase” (Molecular Cancer, 2013).
Read-outs that look alike come from different tables or passages of the source.

What was measured:
human α3β1 NaK complex = target: T1, human α3β1 NaK complex (Homo sapiens, UniProt P13637); assay: 3H-ouabain competitive displacement on P. pastoris membranes; assay type: binding; details: for Kd: 3H-ouabain displacement, three independent experiments, read-out: Affinity (nM) α-3 (KD ± SEM); for Selectivity α-1 / α-3: ratio of KD α-1 to KD α-3
T1 construct: made in house; host or cells: Pichia pastoris strain SMD1165 (membranes)
Experimental: (§1) K0.5 was calculated using a one site inhibition model: B/BCG=0 = K0.5/([CG] + K0.5). […] Binding of each cardiac glycoside was estimated in 3 separate experiments.
(§2) Average KD or Ki values ± SEM for each isoform were calculated. Statistical significance was calculated by the unpaired Students t-test. P values <0.05 were considered significant.

human α2β1 NaK complex = target: T2, human α2β1 NaK complex (Homo sapiens, UniProt P50993); assay: as above; assay type: binding; details: for Kd: 3H-ouabain displacement, three independent experiments, read-out: Affinity (nM) α-2 (KD ± SEM); for Selectivity α-1 / α-2: ratio of KD α-1 to KD α-2
T2 construct: made in house; host or cells: Pichia pastoris strain SMD1165 (membranes)
Experimental: as §1, §2

human α1β1 NaK complex = target: T3, human α1β1 NaK complex (Homo sapiens, UniProt P05023); assay: as above; assay type: binding; details: for Kd: 3H-ouabain displacement, three independent experiments, read-out: Affinity (nM) α-1 (KD ± SEM); for fold higher affinity for α1 than for the α2 and α3 subunits: from Table 2 KD values
T3 construct: made in house; host or cells: Pichia pastoris strain SMD1165 (membranes)
Experimental: as §1, §2

[1] = test system: human cancer cells (A549, U373, Hs683, T98G, MCF-7, SKMEL-28, PC-3, HT-29); assay: MTT growth inhibition, mean over the eight human cancer cell lines; assay type: cell-based; details: read-out: IC50 (nM) Mean ± SEM
How it was run: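 Cells grown in RPMI with 10% heat-inactivated FCS and 4 mM glutamine; growth measured by MTT reduction to formazan, read by spectrophotometry. Optical density of treated versus control cells gives growth inhibition. Six replicates per condition.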

NHDF fibroblasts = assay: MTT growth inhibition in non-cancerous control cell line; assay type: cell-based; details: normal human fibroblasts, read-out: in vitro growth inhibitory effects (IC50) in NHDF fibroblasts
Excerpt: The histological types and origins of the eight human cancer cell lines that were used for the MTT colorimetric assay are detailed in the legend of Table 1. Two mouse cancer cell lines were also used, the CT26.WT colon cancer cell line (ATCC code CRL-2638) and the B16F10 melanoma cell line (ATCC code CRL-6475). Both cell lines were obtained from the American Type Culture Collection (ATCC, Manassas, VA). A control cell line (human NHDF fibroblasts) was obtained from PromoCell (code c-12300; Heidelberg, Germany). The cell lines detailed in Figure 2A are a generous gift from the National Cancer Institute (NCI, Bethesda, USA) to Steven Karlish’s lab.
The cancer cells were cultured in RPMI (Lonza, Verviers, Belgium) medium supplemented with 10% heat-inactivated fetal calf serum (Lonza). All culture media were supplemented with 4 mM glutamine, 100 μg/mL gentamicin, 200 U/mL penicillin and 200 μg/mL streptomycin (Lonza). The NHDF fibroblasts were cultured in Lonza medium cc3132 KT FGM-2 BulletKit.
The overall growth level of the human cancer cell lines was determined using a colorimetric MTT (3-(4,5-dimethylthiazol-2yl)-2,5-diphenyltetrazolium bromide, Sigma, Belgium) assay as detailed previously. Briefly, this test measures the number of metabolically active (thus living) cells that are able to transform the yellow MTT into the blue formazan dye via a mitochondrial reduction involving succinate dehydrogenase. The amount of formazan obtained at the end of the experiment (measured by spectrophotometry) is directly proportional to the number of living cells. The determination of the optical density in the control compared to the treated cells therefore enables quantitative measurements of the effects of compounds on the growth of normal as well as cancer cells in vitro.
Each experimental condition was performed in six replicates.

[2] = test system: KB-3-1 and ABCB1-overexpressing KB-C-1 cells; assay: MTT viability, MDR model; assay type: cell-based, human; details: 72 hours
Excerpt: (§3) The following human cancer cell lines and their chemoresistant sublines were used in this study: the colon carcinoma cell line HCT-116 p53/wt and the p53 knock-out cell line HCT-116 p53/ko (generously donated by B. Vogelstein, Johns Hopkins University, Baltimore, MD, USA); the epidermal carcinoma-derived cell line KB-3-1 and the ABCB1-overexpressing subline KB-C-1 (generously donated by D.W. Shen, Bethesda, USA); the small cell lung carcinoma cell line GLC-4 and the ABCC1- and LRP-overexpressing subline GLC-4/ADR (from E.G. de Vries, Groningen, Netherlands); the ovarian carcinoma cell line A2780 and the cisplatin resistant subline A2780cis (purchased from Sigma-Aldrich); and the promyelocytic leukemia cell line HL60 and the mitoxantrone resistant subline HL60/mx (generously donated by G. Harker, Salt Lake City, USA). All cell lines were grown in RPMI 1640 supplemented with 10% fetal bovine serum with the exception of the HCT-116 cells, which were grown in McCoy’s medium with 10% serum.
(§4) Figure 4 Impact of different MDR mechanisms on the cytotoxicity of hellebrigenin. […] Viability was determined using a 3-(4,5-dimethythiazol-2-yl)-2,5-diphenyltetrazolium bromide (MTT) colorimetric assay. […]

[3] = test system: GLC-4 and ABCC1- and LRP-overexpressing GLC-4/ADR small cell lung carcinoma cells; assay: MTT viability, MDR model; assay type: cell-based, human; details: 72 hours
Excerpt: as §3, §4

HT-29 colon cancer cells = assay: O2 consumption rate (MitoXpress assay); assay type: cell-based, human; details: compounds at their IC50 (MTT), 24 h

Row | SMILES | Kd (human α3β1 NaK complex) [nM] | Selectivity α-1 / α-3 (human α3β1 NaK complex) | Kd (human α2β1 NaK complex) [nM] | Selectivity α-1 / α-2 (human α2β1 NaK complex) | Kd (human α1β1 NaK complex) [nM] | fold higher affinity for α1 than for the α2 and α3 subunits (human α1β1 NaK complex) | IC50 ([1]; mean over eight human cancer cell lines, three days of culture) [nM] | IC50 (NHDF fibroblasts) [nM] | sensitivity of KB-C-1 compared to parental cell line [2] | sensitivity of GLC4/ADR compared to parental cell line [3] | IC50 ([1]; Homo sapiens, 72 h) [nM] | IC50 (NHDF fibroblasts; NHDF) [nM] | O2 consumption rate (cell respiration) (HT-29 colon cancer cells)
1 | C[C@]12CC[C@H]3[C@@H](CC[C@]4(O)C[C@@H](O)CC[C@]34C=O)[C@@]1(O)CC[C@@H]2c1ccc(=O)oc1 [Hellebrigenin] | 191 ± 23 | 0.5 | 198 ± 51 | 0.5 | 103 ± 19 | ~ 2 fold | 16 ± 5 | > 10000 | equally sensitive | equally sensitive |  |  | 
2 | C[C@@H]1O[C@@H](O[C@H]2CC[C@]3(C=O)[C@H]4CC[C@]5(C)[C@@H](c6ccc(=O)oc6)CC[C@]5(O)[C@@H]4CC[C@]3(O)C2)[C@H](O)[C@H](O)[C@H]1O[C@@H]1O[C@H](CO)[C@@H](O)[C@H](O)[C@H]1O [Hellebrin] | 175 ± 20 | 0.5 | 218 ± 52 | 0.4 | 86 ± 18 | ~ 2 fold |  |  |  |  | 28 ± 7 | > 10000 | significantly reduced
